As a reminder, the IC50 is the point on the concentration scale where inhibition reaches its midpoint.

Structures are written as SMILES. Where only a bound is given, the exact number is not on record here.

Test [1] has as its system A549 cell line. The test can be described thus: 96-hour MTS viable cell number assay, A549 cell line (monotherapy and combination). Particulars: for IC50: Homo sapiens, A549, 96 h, read-out: IC50 monotherapy (Geomean).
Procedure: (§5) The NCI-H727, Calu-6, NCI-H2291, NCI-H23, A549 and NCI-H460 cell lines were routinely cultured and assayed in RPMI (phenol red free)+10% Foetal Calf Serum (FCS)+1% glutamine.
(§6) MTS viable cell number assays were carried out to determine seeding densities required for 96 hours of exponential growth. Cells were seeded into 96-well plates at their pre-determined seeding density allowing for log phase growth. […] Following incubation with compound for 96-hours viable cell number was determined using an MTS viable cell number (Promega™) endpoint.
The subject of test [2] is A549a xenografts. Put plainly: A549a tumour xenograft growth in nude mice. It counts as in vivo. The method, then:
(§1) LoVo cells were grown in DMEM (Gibco) 10% FCS 1% Glutamine medium and HCT116 cells were grown in McCoys 5A 10% FCS 1% Glutamine, A549a and CaLu-6 cells were grown in RPMI1640 10% FCS 1% Glutamine. […] cells were implanted into the flank of nude mice (LoVo no matrigel, HCT-116, Calu-6 and A549a plus 50% matrigel).
(§2) When mean tumour size reached approximately 0.2 cm^3, the mice were randomized into control and treatment groups. The treatment groups received either 25 or 50 mg/kg AZD6244 (vehicle: HPMC/Tween milled overnight), or 20 mg/kg Compound A (vehicle 10% DMSO, 90% propylene glycol) by oral gavage, Rapamycin was given 4 mg/kg once weekly (10% DMSO-10% Cremaphor-10% Ethanol-70% water for injection. When administered in combination, Compound A was given 2 hours after the oral dose of the other compound. The control group received vehicle (10% DMSO 90% propylene glycol) alone, once daily by oral gavage.
(§3) Tumour volumes (measured by caliper), animal body weight and tumour condition were recorded twice weekly for the duration of the study. Mice were sacrificed by CO2 euthanasia. The tumour volume was calculated (taking length to be the longest diameter across the tumour and width to be the corresponding perpendicular diameter using the formula: (length×width)×√(length×width)×(π/6). Growth inhibition from the start of treatment was assessed by comparison of the differences in tumour volume between control and treated groups. Because the variance in mean tumour volume data increases proportionally with volume (and is therefore disproportionate between groups), data were log-transformed to remove any size dependency before statistical evaluation.
(§4) Statistical significance was evaluated using a one-tailed, two-sample t test. To analyze the data from the combination study, the statistical tool SigmaStat has been used. A two-way ANOVA test was performed using the factors concentration of drug A and concentration of drug B. The data analyzed was Log (final tumour volume)-Log (initial tumour volume) calculated for each individual group at the end of the study. […]

The subject of test [3] is A2058 cell line. Put plainly: 96-hour MTS viable cell number assay, A2058 cell line (monotherapy and concurrent combination). It counts as cell-based. Particulars: Homo sapiens, 96-hour viable cell number endpoint by MTS, read-out: IC50 monotherapy (Geomean). The text has this:
The objective of this assay was to determine the in-vitro combination interaction when combining AZD6244 or 2-(2-fluoro-4-iodophenylamino)-N-(2-hydroxyethoxy)-1,5-dimethyl-6-oxo-1,6-dihydropyridine-3-carboxamide concurrently with Compound A or Rapamycin in the A2058, NCI-H727, Calu-6, NCI-H2291, NCI-H23, A549 and NCI-H460 cell lines using a 96-hour viable cell number endpoint (MTS).
The A2058 cell line was routinely cultured and assayed in DMEM (phenol red free)+10% Foetal Calf Serum (FCS)+1% glutamine. The A2058 cell line is wild type for HRAS, KRAS and NRAS and mutant for the BRAF V600E mutation.
MTS viable cell number assays were carried out to determine seeding densities required for 96 hours of exponential growth. Cells were seeded into 96-well plates at their pre-determined seeding density allowing for log phase growth. After 4-hours cells were dosed with monotherapy AZD6244, 2-(2-fluoro-4-iodophenylamino)-N-(2-hydroxyethoxy)-1,5-dimethyl-6-oxo-1,6-dihydropyridine-3-carboxamide, Compound A, or Rapamycin using the Hydra/ECHO 550 platform. Following incubation with compound for 96-hours viable cell number was determined using an MTS viable cell number (Promega™) endpoint.
Concurrent combination: Cells were seeded into 96-well plates at the above-determined seeding density allowing for log phase growth. After 4 hours cells were dosed concurrently with
Non-linear MEA (Median Effect Analysis): The combination interaction between 2 active agents, each with well defined IC50 monotherapy dose responses was assessed using equal inhibitory effect ratios of the two agents (IC60, IC50, IC40, IC30, IC20, IC10). A combination index (CI)<0.85 indicates a synergistic interaction, CI 0.85-1.2 additivity and a CI>1.2 antagonism.
That is a fixed dose of the partially active agent (in MTS assays) was applied across the full dose response of the active agent. Relative potency is defined as the ratio of the combination IC50 to the monotherapy IC50.

Test [4] has as its system NCI-H460 cell line. Put plainly: 96-hour MTS viable cell number assay, NCI-H460 cell line (monotherapy and combination). Particulars: for IC50: Homo sapiens, NCI-H460, 96 h, read-out: IC50 monotherapy (Geomean).
Procedure: as §5, §6
Test [5] deals with Calu-6 xenografts. Put plainly: Calu-6 tumour xenograft growth in nude mice. It counts as in vivo. The method, then: as §1, §2, §3, §4
For test [6], the system named is NCI-H2291 cell line. Put plainly: 96-hour MTS viable cell number assay, NCI-H2291 cell line (monotherapy and combination). Particulars: for IC50: Homo sapiens, NCI-H2291, 96 h, read-out: IC50 monotherapy (Geomean).
Procedure: as §5, §6
The subject of test [7] is Calu-6 cell line. The test can be described thus: 96-hour MTS viable cell number assay, Calu-6 cell line (monotherapy and combination). Particulars: Homo sapiens, Calu-6, 96 h, read-out: IC50 monotherapy (Geomean).
Procedure: as §5, §6
Test [8] concerns LoVo xenografts. The test can be described thus: LoVo tumour xenograft growth in nude mice. The class given is in vivo. The protocol: as §1, §2, §3
Statistical significance was evaluated using a one-tailed, two-sample t test. To analyze the data from the combination study, the statistical tool SigmaStat has been used. A two-way ANOVA test was performed using the factors concentration of drug A and concentration of drug B. The data analyzed was Log (final tumour volume)-Log (initial tumour volume) calculated for each individual group at the end of the study. This tool is used to assess whether there is a main effect of drug A, a main effect of drug B plus a significant interaction between the two compounds A and B (eg. one compound influences the effect of the other compound) which may be interpreted as antagonism, additivity or synergism.

The subject of test [9] is NCI-H23 cell line. The test can be described thus: 96-hour MTS viable cell number assay, NCI-H23 cell line (monotherapy and combination). Particulars: for IC50: Homo sapiens, NCI-H23, 96 h, read-out: IC50 monotherapy (Geomean).
Procedure: as §5, §6
Test [10] relates to NCI-H727 cell line. Put plainly: 96-hour MTS viable cell number assay, NCI-H727 cell line (monotherapy and combination). Particulars: Homo sapiens, NCI-H727, 96 h, read-out: IC50 monotherapy (Geomean).
Procedure: as §5, §6
Test [11] concerns pERK 1/2(Thr202/Tyr204). Put plainly: pharmacodynamic effect of AZD6244 against pERK 1/2. The class given is cell-based.
For test [12], the system named is HCT-116 xenografts. The test can be described thus: HCT-116 tumour xenograft growth in nude mice. The class given is in vivo. The method, then:
as §1
When mean tumour size reached approximately 0.2 cm^3, the mice were randomized into control and treatment groups. […]
as §3, with “Mice were sacrificed by CO2 euthanasia.” left out
Statistical significance was evaluated using a one-tailed, two-sample t test. […]

Setting [13] is: 20 mg/kg Compound A, oral gavage.

Consider `CO[C@H]1C[C@@H]2CC[C@@H](C)[C@@](O)(O2)C(=O)C(=O)N2CCCC[C@H]2C(=O)O[C@H]([C@H](C)C[C@@H]2CC[C@@H](O)[C@H](OC)C2)CC(=O)[C@H](C)/C=C(\C)[C@@H](O)[C@@H](OC)C(=O)[C@H](C)C[C@H](C)/C=C/C=C/C=C/1C` [Rapamycin], for which the “growth inhibitory effect reached” value in [1] (A549, regardless of the presence of AZD6244) is given as below 50%; in test [4] (NCI-H460, regardless of the presence of AZD6244), below 50%; in test [6] (NCI-H2291, regardless of the presence of AZD6244), below 50%; in [9] (NCI-H23, regardless of the presence of AZD6244) it was below 50%. The IC50 in test [1], in [3], in test [4], in [6], in test [7] and in [9] was above 10000 nM throughout. Further, the IC50 in test [10] was above 10000 nM. The “reduction in geometric mean delta tumour volume compared with the vehicle treated control” value in [2] (4 mg/kg once weekly Rapamycin) was determined as 69.5%; in test [5] (4 mg/kg once weekly Rapamycin), 37.2%; in [8] (4 mg/kg Rapamycin), 38.2%.
`Cn1cnc2c(F)c(Nc3ccc(Br)cc3Cl)c(C(=O)NOCCO)cc21` [AZD6244]: the IC50 in [1] turned out to be 12400 nM; in test [3], 526 nM; in [4] it was 32400 nM; in test [6], 704 nM; in [7] it was 257 nM; in [9], 1840 nM. The half-inhibitory concentration (IC50) in test [10] is 36 nM. The “reduction in geometric mean delta tumour volume compared with the vehicle treated control” value is listed as 53.4% in [2] (25 mg/kg once daily AZD6244), 93.2% in test [5] (50 mg/kg once daily AZD6244) and 38.7% in [8] (25 mg/kg twice daily AZD6244). Moreover, in test [11], the “ED90, pharmacodynamic effect against pERK 1/2(Thr202/Tyr204)” value is reported as 333 nM. For the same compound, in [11], the “ED95, pharmacodynamic effect against pERK 1/2(Thr202/Tyr204)” value amounted to 1000 nM. Besides, in [11] (read-out: ED50, pharmacodynamic effect against pERK 1/2(Thr202/Tyr204)), the EC50 came to 20 nM. Moreover, the “reduction in geometric mean delta tumour volume compared with the vehicle control” value in test [12] (25 mg/kg AZD6244, oral gavage) turned out to be 59%; in test [8] (50 mg/kg AZD6244, oral gavage), 43%.
For `Cc1cc(C(=O)NOCCO)c(Nc2ccc(I)cc2F)n(C)c1=O` [2-(2-fluoro-4-iodophenylamino)-N-(2-hydroxyethoxy)-1,5-dimethyl-6-oxo-1,6-dihydropyridine-3-carboxamide], the IC50 in test [3] is 25 nM.
Consider `COc1ccc(-c2ccc3c(N4CCOC[C@@H]4C)nc(N4CCOC[C@@H]4C)nc3n2)cc1CO` [Compound A, [5-[2,4-bis[(3S)-3-methylmorpholin-4-yl]pyrido[5,6-e]pyrimidin-7-yl]-2-methoxyphenyl]methanol], for which the IC50 in test [1] came to 37 nM; in test [3] it was 46 nM; in test [4], 26 nM; in test [6] it was 23 nM; in test [7], 50 nM; in [9], 30 nM. Besides, the IC50 in test [10] was determined as 68 nM. Moreover, the figures for the “reduction in geometric mean delta tumour volume compared with the vehicle treated control” value in [2] (20 mg/kg once daily Compound A) and in [5] (20 mg/kg once daily Compound A) were 94.1% and 44.9%, respectively. Moreover, the “reduction in geometric mean delta tumour volume compared with the vehicle control” value in test [12] (setting [13]) came to 24%; in test [8] (setting [13]), 66%.

These data come from patent publication US20090099174A1, “COMBINATION 059” (ASTRAZENECA AB, priority 2007, published 2009).
